assay: in vitro; details: human, hela cells, % viability

| Structure (SMILES) | viability at 28.5 h, 10 µM [%] |
| --- | --- |
| O=C(CC(NC(=O)c1ccccc1)c1ccccc1)Nc1cccc2ccccc12 (stereo not shown) [CBK263901] | 98.9 |
| Cn1cncc1C(=O)NCc1ccccc1 [CBK200199] | 96.9 |
| CN(C)CCN(C)C(=O)c1ccc(-c2cccc(OC(F)(F)F)c2)nc1N(C)C [CBK106081] | 90.3 |
| O=C(NCCOc1ccc(F)cc1)c1cccc(-n2cccn2)c1 [CBK281596] | 101 |
| Cc1ccccc1COc1cccc2c1CCCC2 [CBK002562] | 98.2 |
| O=S(=O)(Cc1cc(Cl)ccc1F)N1CCN(CCO)CC1 [CBK306385] | 80 |
| O=S(=O)(Nc1ccc(-c2nnn[nH]2)cc1)c1ccc(F)c(C(F)(F)F)c1 [CBK154759] | 96.9 |
| COc1ccccc1CNCc1ccccc1OC [CBK262168] | 106 |
| C(=C\c1nccnc1OC(c1ccccc1)c1ccccc1)/c1ccccc1 [CBK106878] | 99.1 |
| COC(=O)c1c(NC(=O)CC2SCC(C(=O)OC)NC2=O)sc2c1CCCC2 (stereo not shown) [CBK263834] | 94.5 |
| O=C(O)c1ccc(S(=O)(=O)c2ccc3c(c2)C(=O)N(NC(=O)c2ccc(O)cc2)C3=O)cc1 [CBK264229] | 102 |
| c1ccc(CNc2nc(-c3ccncc3)cs2)cc1 [CBK058609] | 91 |
| O=C(N/N=C\c1ccc([N+](=O)[O-])o1)c1nc(-c2ccccc2)cc(-c2ccccc2)n1 [CBK261958] | 95.5 |
| COc1ccccc1N1CCN(C(=O)NCCCN2CCCC2=O)CC1 [CBK155612] | 99.5 |
| O=C(CN(Cc1ccc(Cl)cc1Cl)S(=O)(=O)c1ccccc1)Nc1c(F)cccc1F [CBK265801] | 99.1 |
| COc1ccc2cc(C(=O)NC3CCCN(C)C3)n(C)c2c1 (stereo not shown) [CBK282541] | 85.1 |
| Fc1ccc(CN2CCC(c3n[nH]c4ncccc34)CC2)cc1 [CBK284902] | 96.2 |
| C[C@@H]1[C@H]2C[C@@H](C[C@H]1NC1=NC(=O)C(CC(=O)O)S1)C2(C)C (stereo partly shown) [CBK059514] | 93.8 |
| CCc1cn(C[C@H](NC(=O)c2ccco2)C(=O)O)c(=O)[nH]c1=O [CBK289670] | 86 |
| CCOC(=O)c1cnc2ccc(F)cc2c1N1CCN(C)CC1 [CBK304376] | 90.1 |
| CSc1ccc(-c2cn3ccnc3c(N3CCN(CCO)CC3)n2)cc1 [CBK066596] | 86.6 |
| CN(C)CCNC(=O)c1cccc(-c2cc(N3CCCN(C)CC3)n3nccc3n2)c1 [CBK037143] | 86.2 |

| Structure (SMILES) | viability at 28.5 h, 10 µM [%] |
| --- | --- |
| CCOC(=O)C(C)n1nc(C)n2c(cc3sc(C)cc32)c1=O (stereo not shown) [CBK284066] | 76.8 |
| O=C(OCc1cc2ccccc2o1)N1CCOCC1 [CBK200162] | 98.1 |
| CC(C)Oc1ccc(C(=O)N2CCN(c3ccccc3)CC2)cc1 [CBK305847] | 83.5 |
| O=C(Nc1ccc([C@@H](O)[C@H]2COCC(=O)N2Cc2ccc(F)cc2)cc1)c1cccnc1 [CBK289062] | 93.3 |
| CCN(C(=O)Cc1cc(OC)ccc1Br)c1cccnc1 [CBK305318] | 97.7 |
| O=C(Cc1cc(F)cc(F)c1F)N1CCC(Sc2ccc(-c3ccccc3)cc2)CC1 [CBK131952] | 94.5 |
| Cc1cccc(-c2n[nH]c(=S)n2CC(=O)NCCCS(=O)(=O)Cc2ccccc2)c1 [CBK297942] | 103 |
| Cc1cccc(-n2nnnc2SC(C)C(=O)O)c1 (stereo not shown) [CBK287003] | 90.1 |
| Cc1occc1-c1nn(C2CCNCC2)c(=O)o1 [CBK284757] | 98.5 |
| COc1ccc(C2NCCc3c2[nH]c2ccccc32)cc1CSc1nc2ccccc2s1 (stereo not shown) [CBK264303C] | 96.8 |
| O=C(COc1cccnc1)N1CCN(C(=O)c2ccco2)CC1 [CBK144482] | 96.7 |
| Cn1nc(C2CCCC2)cc1[C@H]1CN2CC[C@H]1C[C@@H]2CNS(=O)(=O)c1ccccc1 [CBK288741] | 96.3 |
| COc1ccc2[nH]cc(CCNC(=O)c3ccco3)c2c1 [CBK116204] | 96.5 |
| O=C(NCCn1nc(-c2cccs2)ccc1=O)c1cccs1 [CBK283836] | 77 |
| CCc1nnc(NS(=O)(=O)c2ccc(Nc3ccc4nonc4c3[N+](=O)[O-])cc2)s1 [CBK261445] | 98 |
| CCNC(=O)CN1CCN(c2nc(C(F)(F)F)ccc2C#N)CC1 [CBK305515] | 86.4 |
| CC(C)[C@H](CO)NC(=O)c1cnc(-c2ccccc2)c(-c2ccncc2)c1 [CBK036691] | 115 |
| c1cncc(-c2nccnc2NCc2ccco2)c1 [CBK037204] | 102 |
| CN(C)C(=O)c1ccc(-c2ccc(COC3CCN(C(=O)c4cc5ccccc5o4)CC3)c(S(C)(=O)=O)c2)cc1 [CBK155965] | 94.6 |
| Cc1cc(NC(=O)c2cccc(Br)c2)nc2c1c(=O)oc1ccccc12 [CBK291238] | 94.3 |
| O=C(NCCCn1cccn1)N1CCCN(Cc2ccc(Cl)cc2)CC1 [CBK305447] | 116 |
| CCn1c(C(O)c2ccc(OCc3ccccc3)cc2)nc2ccccc21 (stereo not shown) [CBK263458] | 96.1 |

| Structure (SMILES) | viability at 28.5 h, 10 µM [%] |
| --- | --- |
| COc1cc(C=C2SC(=S)N(CCCCCC(=O)O)C2=O)cc(OC)c1 [CBK297505] | 98.1 |
| CSc1nnc(N(C)S(=O)(=O)c2ccc(C)cc2)s1 [CBK155272] | 87.2 |
| Cc1nc(COc2ccccc2)sc1C(=O)N1CCC(C(N)=O)CC1 [CBK202603] | 103 |
| O=C(Nc1ccc(F)cc1)c1ccc(NS(=O)(=O)c2ccc(Br)cc2)cc1 [CBK050400] | 103 |
| CCCC/C=C/c1cnc(N)c(N[C@@H](C)c2ccccc2)n1 [CBK063722] | 109 |
| Cc1cc2nc(-c3ccccc3)[nH]c2cc1C [CBK086484] | 80.1 |
| CS(=O)(=O)Nc1cc2ccccc2c(-c2cccc(C(F)(F)F)c2)n1 [CBK085754] | 92.9 |
| Cc1ccc(-c2csc(NC(=O)c3ccc(F)cc3)n2)cc1 [CBK095107] | 85.2 |
| COCCNc1nccnc1-c1cccc(C(=O)N2CCN(C)CC2)c1 [CBK036864] | 99.9 |
| CCNc1nc(C#N)nc(Nc2ccccc2)n1 [CBK027733] | 86.1 |
| O=C(CCN1CCCCC1)Nc1cnc(-c2ccc(F)cc2)c(-c2ccsc2)n1 [CBK036846] | 90.3 |
| O=C(/C=C/c1ccco1)Nc1sc2c(c1C(=O)O)CCC2 [CBK263181] | 97.7 |
| CC(Oc1ccc(Br)cc1)C(=O)O/N=C(\N)c1ccncc1 (stereo not shown) [CBK266797] | 93 |
| [N-]=[N+]=NC1C2OCC(O2)C(OCc2ccccc2)C1O (stereo not shown) [CBK261000] | 90.1 |
| Cc1ccc(S(=O)(=O)NCCOc2nc(N(C)C)nc(N3CCOCC3)n2)cc1 [CBK266705] | 97 |
| O=C(c1ccc(-c2cnc3[nH]c(=O)n(C4CCCCC4)c3n2)cc1)N1CCOCC1 [CBK064566] | 106 |
| O=S(=O)(Nc1ccc(C(O)(C(F)(F)F)C(F)(F)F)cc1)c1csc2ccccc12 [CBK062098] | 85.4 |
| COc1ccc(-c2nnc(SCC(=O)O)n2C)cc1 [CBK287232] | 93 |
| Cc1ccc(C(=O)N2CCN(S(=O)(=O)c3sc(C(=O)O)c(C)c3C(=O)O)CC2)s1 [CBK297150] | 84.8 |
| Cc1csc(NC(=O)c2c(C)c(C)n[nH]c2=O)n1 [CBK297759] | 84.4 |
| O=S(=O)(Nc1cccc2cc[nH]c12)c1cc(Cl)ccc1Cl [CBK153581] | 84.6 |
| COc1cccc(C2(NC(=O)Cn3nc(C)cc3C)CCCC2)c1 [CBK283648] | 98.1 |

| Structure (SMILES) | viability at 28.5 h, 10 µM [%] |
| --- | --- |
| C[C@@H](c1ccccc1)n1c(=O)[nH]c2ncc(-c3cccc(-c4ccccc4)c3)nc21 [CBK064192] | 88.8 |
| O=C1NC2(CCc3ccccc31)CCN(Cc1ccncc1)C2 (stereo not shown) [CBK284610] | 99 |
| COc1ccc(-c2nn(-c3ccccc3)cc2C(=O)Nc2ccc(C(=O)O)cc2)cc1OC [CBK296112] | 95 |
| COc1cc(C2C3=C(COC3=O)Nc3[nH]nc(C)c32)ccc1O (stereo not shown) [CBK288146] | 98.5 |
| CCOC(=O)[C@H]1CC[C@]2(CC1)CN(C)C(=O)c1ccccc1O2 [CBK284848] | 101 |
| CN1CC(C(=O)NCC(c2ccccc2)N2CCCCCC2)CC1=O (stereo not shown) [CBK282008] | 105 |
| COc1ccc(OC)c(C(=O)c2coc3ccc(OCC(=O)O)cc23)c1 [CBK111288] | 91.8 |
| Cc1ccc(N2CCCC2=O)cc1S(=O)(=O)NC(c1ccccc1)c1ccccc1 [CBK286348] | 85.6 |
| COC(=O)C1(Cc2cc(-c3ccccc3F)no2)CCOCC1 [CBK285182] | 87.8 |
| COc1ccc([N+](=O)[O-])cc1NC(=O)c1cc(Cl)c(OC)c(Cl)c1 [CBK268594] | 82.6 |
| NC(=S)NC(=O)CN1C(=O)c2ccccc2C1=O [CBK264111] | 90.9 |
| O=C(Nc1cccc(C(=O)O)c1)/C(=C\c1ccccc1)NC(=O)c1ccccc1Cl [CBK263710] | 90.4 |
| CCOC(=O)COc1cccc(/C=C2/SC(=S)N(c3cccc(C(=O)O)c3)C2=O)c1 [CBK265589] | 98.3 |
| Nc1cc(S(=O)(=O)Nc2ccc(C(F)(F)F)cc2)ccc1N1CCCNCC1 [CBK001518C] | 87.9 |
| Cc1cc(/C=C2/NC(=S)NC2=O)c(C)n1-c1ccc(Sc2ccc([N+](=O)[O-])cc2)cc1 [CBK263883] | 109 |
| O=C(NCCC1=CCCCC1)c1cnc2n(c1=O)CCS2 [CBK287373] | 89.8 |
| CCCC(=O)c1ccc(S(=O)(=O)N2CCN(Cc3cccc(Br)c3)CC2)cc1 [CBK063146] | 87.4 |
| O=C(Nc1ccc2c(c1)oc1ccccc12)C1CCCO1 (stereo not shown) [CBK270168] | 81.9 |
| COc1cccc(NC(=O)c2ccncc2Cl)c1 [CBK174695] | 96.3 |
| Cc1cc(O)n2nc(C)c(-c3ccc(F)cc3)c2n1 [CBK283642] | 89.3 |
| O=C(Cn1c(-c2cccs2)cc2cccnc21)N1CCCCC1 [CBK282619] | 98.1 |
| COc1ccc(F)cc1-c1ccc(S(=O)(=O)Nc2nc(CC(=O)N3CCOCC3)cs2)cc1 [CBK200031] | 88 |
